According to US9006250B2, “4-amino-6-(heterocyclic)picolinates and 6-amino-2-(heterocyclic)pyrimidine-4-carboxylates and their use as herbicides” (Dow AgroSciences, LLC, priority 2013, dated 2015):

Legend:
Assay in all cases: Post-Emergent Test II herbicidal activity
Assay type in all cases: in vivo
[1] = test system: SETFA: giant foxtail (Setaria faberi); details: post-emergence, 336 h, 14 days, read-out: Visual Growth Reduction (%) 14 Days After Application SETFA; for pest or weed control at 35 g/ha: 35 g ai/ha; for pest or weed control at 70 g/ha: 70 g ai/ha; for pest or weed control at 140 g/ha: 140 g ai/ha
Experimental: (§1) Post-Emergent Test II: Seeds or nutlets of the desired test plant species were planted in Sun Gro Metro-Mix® 360 planting mixture, which typically has a pH of 6.0 to 6.8 and an organic matter content of about 30 percent, in plastic pots with a surface area of 64 square centimeters. When required to ensure good germination and healthy plants, a fungicide treatment and/or other chemical or physical treatment was applied. The plants were grown for 7-21 d in a greenhouse with an approximate 15 h photoperiod which was maintained at about 23-29° C. during the day and 22-28° C. during the night. Nutrients and water were added on a regular basis and supplemental lighting was provided with overhead metal halide 1000-Watt lamps as necessary. The plants were employed for testing when they reached the first or second true leaf stage.
(§2) A weighed amount, determined by the highest rate to be tested, of each test compound was placed in a 25 mL glass vial and was dissolved in 4 mL of a 97:3 v/v mixture of acetone and DMSO to obtain concentrated stock solutions. […] The concentrated stock solutions obtained were diluted with 20 mL of an aqueous mixture containing acetone, water, isopropyl alcohol, DMSO, Atplus 411F crop oil concentrate, and Triton® X-155 surfactant in a 48.5:39:10:1.5:1.0:0.02 v/v ratio to obtain spray solutions containing the highest application rates. Additional application rates were obtained by serial dilution of 12 mL of the high rate solution into a solution containing 2 mL of 97:3 v/v mixture of acetone and DMSO and 10 mL of an aqueous mixture containing acetone, water, isopropyl alcohol, DMSO, Atplus 411F crop oil concentrate, and Triton X®-155 surfactant in a 48.5:39:10:1.5:1.0:0.02 v/v ratio to obtain ½×, ¼×, ⅛× and 1/16× rates of the high rate. Compound requirements are based upon a 12 mL application volume at a rate of 187 liters per hectare (L/ha). Formulated compounds were applied to the plant material with an overhead Mandel track sprayer equipped with 8002E nozzles calibrated to deliver 187 L/ha over an application area of 0.503 square meters at a spray height of 18 inches […] above the average plant canopy height. Control plants were sprayed in the same manner with the solvent blank.
(§3) The treated plants and control plants were placed in a greenhouse as described above and watered by subirrigation to prevent wash-off of the test compounds. After 14 d, the condition of the test plants as compared with that of the untreated plants was determined visually and scored on a scale of 0 to 100 percent where 0 corresponds to no injury and 100 corresponds to complete kill.

[2] = test system: HELAN: sunflower (Helianthus annuus); details: post-emergence, 336 h, 14 days, read-out: Visual Growth Reduction (%) 14 Days After Application HELAN; for pest or weed control at 35 g/ha: 35 g ai/ha; for pest or weed control at 70 g/ha: 70 g ai/ha; for pest or weed control at 140 g/ha: 140 g ai/ha
Experimental: as §1, §2, §3

[3] = test system: BRSNN: oilseed rape, canola (Brassica napus); details: post-emergence, 336 h, 14 days, read-out: Visual Growth Reduction (%) 14 Days After Application BRSNN; for pest or weed control at 35 g/ha: 35 g ai/ha; for pest or weed control at 70 g/ha: 70 g ai/ha; for pest or weed control at 140 g/ha: 140 g ai/ha
Experimental: as §1, §2, §3

[4] = test system: ECHCG: barnyardgrass (Echinochloa crus-galli); details: post-emergence, 336 h, 14 days, read-out: Visual Growth Reduction (%) 14 Days After Application ECHCG; for pest or weed control at 35 g/ha: 35 g ai/ha; for pest or weed control at 70 g/ha: 70 g ai/ha; for pest or weed control at 140 g/ha: 140 g ai/ha
Experimental: as §1, §2, §3

[5] = test system: EPHHL: wild poinsettia (Euphorbia heterophylla); details: post-emergence, 336 h, 14 days, read-out: Visual Growth Reduction (%) 14 Days After Application EPHHL; for pest or weed control at 35 g/ha: 35 g ai/ha; for pest or weed control at 70 g/ha: 70 g ai/ha; for pest or weed control at 140 g/ha: 140 g ai/ha
Experimental: as §1, §2, §3

[6] = test system: ABUTH: velvetleaf (Abutilon theophrasti); details: post-emergence, 336 h, 14 days, read-out: Visual Growth Reduction (%) 14 Days After Application ABUTH; for pest or weed control at 35 g/ha: 35 g ai/ha; for pest or weed control at 70 g/ha: 70 g ai/ha; for pest or weed control at 140 g/ha: 140 g ai/ha
Experimental: as §1, §2, §3

[7] = test system: AMARE: redroot pigweed (Amaranthus retroflexus); details: post-emergence, 336 h, 14 days, read-out: Visual Growth Reduction (%) 14 Days After Application AMARE; for pest or weed control at 35 g/ha: 35 g ai/ha; for pest or weed control at 70 g/ha: 70 g ai/ha; for pest or weed control at 140 g/ha: 140 g ai/ha
Experimental: as §1, §2, §3

[8] = test system: ORYSA: rice (Oryza sativa); details: post-emergence, 336 h, 14 days, read-out: Visual Growth Reduction (%) 14 Days After Application ORYSA; for pest or weed control at 35 g/ha: 35 g ai/ha; for pest or weed control at 70 g/ha: 70 g ai/ha; for pest or weed control at 140 g/ha: 140 g ai/ha
Experimental: as §1, §2, §3

[9] = test system: TRZAS: wheat, spring (Triticum aestivum); details: post-emergence, 336 h, 14 days, read-out: Visual Growth Reduction (%) 14 Days After Application TRZAS; for pest or weed control at 35 g/ha: 35 g ai/ha; for pest or weed control at 70 g/ha: 70 g ai/ha; for pest or weed control at 140 g/ha: 140 g ai/ha
Experimental: as §1, §2, §3

[10] = test system: ZEAMX: maize, corn (Zea mays); details: post-emergence, 336 h, 14 days, read-out: Visual Growth Reduction (%) 14 Days After Application ZEAMX; for pest or weed control at 35 g/ha: 35 g ai/ha; for pest or weed control at 70 g/ha: 70 g ai/ha; for pest or weed control at 140 g/ha: 140 g ai/ha
Experimental: as §1, §2, §3

[11] = test system: CHEAL: lambsquarters (Chenopodium album); details: post-emergence, 336 h, 14 days, read-out: Visual Growth Reduction (%) 14 Days After Application CHEAL; for pest or weed control at 35 g/ha: 35 g ai/ha; for pest or weed control at 70 g/ha: 70 g ai/ha; for pest or weed control at 140 g/ha: 140 g ai/ha
Experimental: as §1, §2, §3

[12] = test system: CYPES: yellow nutsedge (Cyperus esculentus); details: post-emergence, 336 h, 14 days, read-out: Visual Growth Reduction (%) 14 Days After Application CYPES; for pest or weed control at 35 g/ha: 35 g ai/ha; for pest or weed control at 70 g/ha: 70 g ai/ha; for pest or weed control at 140 g/ha: 140 g ai/ha
Experimental: as §1, §2, §3

Row | SMILES | pest or weed control at 35 g/ha [1] | pest or weed control at 70 g/ha [1] | pest or weed control at 140 g/ha [1] | pest or weed control at 35 g/ha [2] | pest or weed control at 70 g/ha [2] | pest or weed control at 140 g/ha [2] | pest or weed control at 35 g/ha [3] | pest or weed control at 70 g/ha [3] | pest or weed control at 140 g/ha [3] | pest or weed control at 35 g/ha [4] | pest or weed control at 70 g/ha [4] | pest or weed control at 140 g/ha [4] | pest or weed control at 35 g/ha [5] | pest or weed control at 70 g/ha [5] | pest or weed control at 140 g/ha [5] | pest or weed control at 35 g/ha [6] | pest or weed control at 70 g/ha [6] | pest or weed control at 140 g/ha [6] | pest or weed control at 35 g/ha [7] | pest or weed control at 70 g/ha [7] | further results
1 | COC(=O)c1nc(-c2ccc3nonc3c2Cl)cc(N)c1Cl [Compound 18] | 0 to 29% | 0 to 29% | 0 to 29% | 0 to 29% | 30 to 44% | 60 to 74% | 60 to 74% | 75 to 84% | 75 to 84% | 0 to 29% | 0 to 29% | 30 to 44% | 0 to 29% | 0 to 29% | 30 to 44% | 0 to 29% | 0 to 29% | 0 to 29% | 95 to 100% | 95 to 100% | pest or weed control at 140 g/ha [7]: 95 to 100%; pest or weed control at 35 g/ha [8]: 0 to 29%; pest or weed control at 70 g/ha [8]: 0 to 29%; pest or weed control at 140 g/ha [8]: 0 to 29%; pest or weed control at 35 g/ha [9]: 0 to 29%; pest or weed control at 70 g/ha [9]: 0 to 29%; pest or weed control at 140 g/ha [9]: 0 to 29%; pest or weed control at 35 g/ha [10]: 0 to 29%; pest or weed control at 70 g/ha [10]: 0 to 29%; pest or weed control at 140 g/ha [10]: 0 to 29%; pest or weed control at 35 g/ha [11]: 75 to 84%; pest or weed control at 70 g/ha [11]: 85 to 94%; pest or weed control at 140 g/ha [11]: 95 to 100%; pest or weed control at 35 g/ha [12]: 0 to 29%; pest or weed control at 70 g/ha [12]: 0 to 29%; pest or weed control at 140 g/ha [12]: 30 to 44%
2 | Nc1c(F)c(-c2ccc3nsnc3c2)nc(C(=O)O)c1Cl [Compound 12] | 0 to 29% | 0 to 29% | 75 to 84% | 95 to 100% | 95 to 100% | 95 to 100% | 75 to 84% | 75 to 84% | 75 to 84% | 75 to 84% | 75 to 84% | 85 to 94% | 95 to 100% | 95 to 100% | 95 to 100% | 85 to 94% | 85 to 94% | 85 to 94% | 95 to 100% | 95 to 100% | pest or weed control at 140 g/ha [7]: 95 to 100%; pest or weed control at 35 g/ha [8]: 0 to 29%; pest or weed control at 70 g/ha [8]: 0 to 29%; pest or weed control at 140 g/ha [8]: 0 to 29%; pest or weed control at 35 g/ha [9]: 0 to 29%; pest or weed control at 70 g/ha [9]: 0 to 29%; pest or weed control at 140 g/ha [9]: 0 to 29%; pest or weed control at 35 g/ha [10]: 60 to 74%; pest or weed control at 70 g/ha [10]: 60 to 74%; pest or weed control at 140 g/ha [10]: 75 to 84%; pest or weed control at 35 g/ha [11]: 85 to 94%; pest or weed control at 70 g/ha [11]: 95 to 100%; pest or weed control at 140 g/ha [11]: 95 to 100%; pest or weed control at 35 g/ha [12]: 0 to 29%; pest or weed control at 70 g/ha [12]: 0 to 29%; pest or weed control at 140 g/ha [12]: 0 to 29%
